What was measured:
[1] = test system: 129S6/SvEv mice; test: Marble burying (MB); type: in vivo; conditions: for p, Fisher's PLSD Saline vs. drug, MB Marbles Buried (no.): drug 5 minutes after stress, FIG. 2K; for number of marbles buried: vs saline
Procedure: The MB assay was conducted in a clean cage (10.5 in×5.5 in) containing soft pliable Beta Chip bedding (Northeastern Products Corp, Warrensburg, N.Y.). The cage contained 16 marbles set up in 4 rows of 4 across. Mice were given 30 minutes to explore and bury. At the end of the assay, the percentage of marbles buried was calculated.

[2] = test system: 129S6/SvEv mice; test: Contextual fear conditioning (CFC), 3-shock; freezing; type: in vivo; conditions: for p, Fisher's LSD Saline vs. drug, CFC Re-exposure Freezing Min 1 (%) / p, Fisher's LSD Saline vs. drug, CFC Re-exposure Freezing Min 2 (%) / p, Fisher's LSD Saline vs. drug, CFC Re-exposure Freezing Min 3 (%) / p, Fisher's LSD Saline vs. drug, CFC Re-exposure Freezing Min 4 (%) / p, Fisher's LSD Saline vs. drug, CFC Re-exposure Freezing Min 5 (%) / p, Fisher's LSD Saline vs. drug, CFC Re-exposure Freezing (%): drug 1 week before stress; for p, Fisher's PLSD Saline vs. drug, CFC Re-exposure Freezing Min 1 (%) / p, Fisher's PLSD Saline vs. drug, CFC Re-exposure Freezing Min 2 (%) / p, Fisher's PLSD Saline vs. drug, CFC Re-exposure Freezing Min 3 (%) / p, Fisher's PLSD Saline vs. drug, CFC Re-exposure Freezing Min 4 (%) / p, Fisher's PLSD Saline vs. drug, CFC Re-exposure Freezing Min 5 (%) / p, Fisher's PLSD Saline vs. drug, CFC Re-exposure Freezing (%): drug 5 minutes after stress, FIG. 2C
Procedure: A 3-shock CFC paradigm was administered as previously described (45, 46). CFC was conducted in chambers obtained from Med Associates (St. Albans, Vt.), with internal dimensions of approximately 20 cm wide×16 cm deep×20.5 cm high. The chambers had metal walls on each side, clear plastic front and back walls and ceilings, and stainless-steel bars on the floor. A house light (CM1820 bulb, 28v, 100 mA) mounted directly above the chamber provided illumination. Each chamber was located inside a larger, insulated, plastic cabinet that provided protection from outside light and noise. Each cabinet contained a ventilation fan that was operated during the sessions. A paper towel dabbed with lemon solution was placed underneath the chamber floor. Mice were held outside the experimental room in their home cages prior to testing and transported to the conditioning apparatus individually in standard mouse cages Chambers were cleaned with 70% EtOH between each set of mice. Mice were placed into the conditioning chamber and received shocks at 180 s, 240 s, and 300 s (2 s duration, 0.75 mA). Fifteen seconds after the last shock, mice were removed from the chamber. Overall, the training session lasted 317 s. […] All sessions were scored for freezing using FreezeFrame4.

`NC12CC3CC(C1)CC(CCF)(C3)C2` [FENM, 1-amino-3-fluoroethyl-adamantane] was tested, and the “p, Fisher's PLSD Saline vs. drug, MB Marbles Buried (no.)” value ([1]; 10 mg/kg) was 0.0737, the “p, Fisher's PLSD Saline vs. drug, MB Marbles Buried (no.)” value ([1]; 30 mg/kg) was 0.0097 and the “number of marbles buried” value ([1]; 5 minutes after CFC, re-exposure 5 days after training, FENM 20 and 30 mg/kg, (R,S)-ketamine 30 mg/kg) was “decreased the number of marbles buried”. For the same compound, the “p, Fisher's PLSD Saline vs. drug, MB Marbles Buried (no.)” value ([1]; dose (20)) was 0.0002, the “number of marbles buried” value ([1]; non-stressed mice, FENM 20 mg/kg 1 hour before the start of the OF) was “did not affect” and the “p, Marbles Buried (no.), MB, Saline vs. FENM” value ([1]; t-test, Baseline, anxiety cohort, FENM 20 mg/kg, FIG. 7F) was 0.4657. The “p, Fisher's LSD Saline vs. drug, CFC Re-exposure Freezing Min 1 (%)” value ([2]; 10 mg/kg, FIG. 1C) was 0.4040, the “p, Fisher's LSD Saline vs. drug, CFC Re-exposure Freezing Min 2 (%)” value ([2]; 10 mg/kg, FIG. 1C) was 0.0961 and the “p, Fisher's LSD Saline vs. drug, CFC Re-exposure Freezing Min 3 (%)” value ([2]; 10 mg/kg, FIG. 1C) was 0.5544. The “p, Fisher's LSD Saline vs. drug, CFC Re-exposure Freezing Min 4 (%)” value ([2]; 10 mg/kg, FIG. 1C) was 0.0419, the “p, Fisher's LSD Saline vs. drug, CFC Re-exposure Freezing Min 5 (%)” value ([2]; 10 mg/kg, FIG. 1C) was 0.3855 and the “p, Fisher's LSD Saline vs. drug, CFC Re-exposure Freezing (%)” value ([2]; 10 mg/kg, after ANOVA, FIG. 1D) was 0.1313. The “p, Fisher's LSD Saline vs. drug, CFC Re-exposure Freezing (%)” value ([2]; 10 mg/kg, after RMANOVA, FIG. 1C) was 0.1313, the “p, Fisher's PLSD Saline vs. drug, CFC Re-exposure Freezing Min 1 (%)” value ([2]; 10 mg/kg) was 0.1019 and the “p, Fisher's PLSD Saline vs. drug, CFC Re-exposure Freezing Min 2 (%)” value ([2]; 10 mg/kg) was 0.0359. The “p, Fisher's PLSD Saline vs. drug, CFC Re-exposure Freezing Min 3 (%)” value ([2]; 10 mg/kg) was 0.0300, the “p, Fisher's PLSD Saline vs. drug, CFC Re-exposure Freezing Min 4 (%)” value ([2]; 10 mg/kg) was 0.1916 and the “p, Fisher's PLSD Saline vs. drug, CFC Re-exposure Freezing Min 5 (%)” value ([2]; 10 mg/kg) was 0.6909. The “p, Fisher's PLSD Saline vs. drug, CFC Re-exposure Freezing (%)” value ([2]; 10 mg/kg, after RMANOVA) was 0.0570, the “p, Fisher's LSD Saline vs. drug, CFC Re-exposure Freezing Min 1 (%)” value ([2]; 20 mg/kg, FIG. 1C) was 0.2929 and the “p, Fisher's LSD Saline vs. drug, CFC Re-exposure Freezing Min 2 (%)” value ([2]; 20 mg/kg, FIG. 1C) was 0.0225. For the same compound, the “p, Fisher's LSD Saline vs. drug, CFC Re-exposure Freezing Min 3 (%)” value ([2]; 20 mg/kg, FIG. 1C) was 0.0834, the “p, Fisher's LSD Saline vs. drug, CFC Re-exposure Freezing Min 4 (%)” value ([2]; 20 mg/kg, FIG. 1C) was 0.0743 and the “p, Fisher's LSD Saline vs. drug, CFC Re-exposure Freezing Min 5 (%)” value ([2]; 20 mg/kg, FIG. 1C) was 0.0027. The “p, Fisher's LSD Saline vs. drug, CFC Re-exposure Freezing (%)” value ([2]; 20 mg/kg, after ANOVA, FIG. 1D) was 0.015, the “p, Fisher's LSD Saline vs. drug, CFC Re-exposure Freezing (%)” value ([2]; 20 mg/kg, after RMANOVA, FIG. 1C) was 0.0150 and the “p, Fisher's LSD Saline vs. drug, CFC Re-exposure Freezing Min 1 (%)” value ([2]; 30 mg/kg, FIG. 1C) was 0.0328. For the same compound, the “p, Fisher's LSD Saline vs. drug, CFC Re-exposure Freezing Min 2 (%)” value ([2]; 30 mg/kg, FIG. 1C) was 0.0080, the “p, Fisher's LSD Saline vs. drug, CFC Re-exposure Freezing Min 3 (%)” value ([2]; 30 mg/kg, FIG. 1C) was 0.0038 and the “p, Fisher's LSD Saline vs. drug, CFC Re-exposure Freezing Min 4 (%)” value ([2]; 30 mg/kg, FIG. 1C) was 0.0005. For the same compound, the “p, Fisher's LSD Saline vs. drug, CFC Re-exposure Freezing Min 5 (%)” value ([2]; 30 mg/kg, FIG. 1C) was 0.0807, the “p, Fisher's LSD Saline vs. drug, CFC Re-exposure Freezing (%)” value ([2]; 30 mg/kg, after ANOVA, FIG. 1D) was 0.0018 and the “p, Fisher's LSD Saline vs. drug, CFC Re-exposure Freezing (%)” value ([2]; 30 mg/kg, after RMANOVA, FIG. 1C) was 0.0018. For the same compound, the “p, Fisher's PLSD Saline vs. drug, CFC Re-exposure Freezing Min 1 (%)” value ([2]; 30 mg/kg) was 0.8647, the “p, Fisher's PLSD Saline vs. drug, CFC Re-exposure Freezing Min 2 (%)” value ([2]; 30 mg/kg) was 0.4119 and the “p, Fisher's PLSD Saline vs. drug, CFC Re-exposure Freezing Min 3 (%)” value ([2]; 30 mg/kg) was 0.3540. For the same compound, the “p, Fisher's PLSD Saline vs. drug, CFC Re-exposure Freezing Min 4 (%)” value ([2]; 30 mg/kg) was 0.0503, the “p, Fisher's PLSD Saline vs. drug, CFC Re-exposure Freezing Min 5 (%)” value ([2]; 30 mg/kg) was 0.3078 and the “p, Fisher's PLSD Saline vs. drug, CFC Re-exposure Freezing (%)” value ([2]; 30 mg/kg, after RMANOVA) was 0.2420.
